Assay results from patent US9695155B2, “Herbicidal substituted pyrimidinyloxy benzene compounds” (E. I. DU PONT DE NEMOURS AND COMPANY, priority 2013, dated 2017).

Tests used:
large (Lg) crabgrass [1] = experiment: Test A preemergence; format: in vivo, Digitaria sanguinalis; details: for Crabgrass, Large plant response rating: 500 g ai/ha
How it was run: (§1)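 Greenhouse pot test, loam/sand soil. Formulation: non-phytotoxic solvent mix plus surfactant. Pre: directed spray onto soil after sowing. Post: plants at 1–2 leaf, 2–10 cm. Rated visually vs untreated controls at ~10 d, 0 (no effect) to 100 (complete control).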

sedge, umbrella = experiment: Test B flooded paddy test; format: in vivo, Cyperus difformis; details: Flood, 250 g ai/ha; 0 to 100 scale where 0 is no effect and 100 is complete control
How it was run: (§2)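 Seedlings are raised to two leaves, flooded to a depth of 3 cm and dosed by adding the compound to the floodwater. Water level is kept constant, and plants are scored visually versus controls 13–15 days later (0 = no effect, 100 = complete control).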

pigweed [2] = experiment: Test A preemergence; format: in vivo, Amaranthus retroflexus
How it was run: as §1

corn [3] = experiment: Test A preemergence; format: in vivo, Zea mays; details: for Corn plant response rating: 500 g ai/ha
How it was run: as §1

velvetleaf [4] = experiment: Test A postemergence; format: in vivo, Abutilon theophrasti
How it was run: as §1

barnyardgrass [5] = experiment: Test A preemergence; format: in vivo, Echinochloa crus-galli; details: for Barnyardgrass plant response rating: 500 g ai/ha
How it was run: as §1

large (Lg) crabgrass [6] = experiment: Test A postemergence; format: in vivo, Digitaria sanguinalis
How it was run: as §1

Heteranthera limosa = experiment: Test B flooded paddy test; format: in vivo; details: Flood, 250 g ai/ha; 0 to 100 scale where 0 is no effect and 100 is complete control
How it was run: as §2

morningglory [7] = experiment: Test A postemergence; format: in vivo, Ipomoea spp.
How it was run: as §1

barnyardgrass [8] = experiment: Test B flooded paddy test; format: in vivo, Echinochloa crus-galli; details: Flood, 250 g ai/ha; 0 to 100 scale where 0 is no effect and 100 is complete control
How it was run: as §2

giant foxtail [9] = experiment: Test A preemergence; format: in vivo, Setaria faberii
How it was run: as §1

wheat [10] = experiment: Test A preemergence; format: in vivo, Triticum aestivum
How it was run: as §1

morningglory [11] = experiment: Test A preemergence; format: in vivo, Ipomoea spp.
How it was run: as §1

corn [12] = experiment: Test A postemergence; format: in vivo, Zea mays
How it was run: as §1

velvetleaf [13] = experiment: Test A preemergence; format: in vivo, Abutilon theophrasti
How it was run: as §1

barnyardgrass [14] = experiment: Test A postemergence; format: in vivo, Echinochloa crus-galli
How it was run: as §1

giant foxtail [15] = experiment: Test A postemergence; format: in vivo, Setaria faberii
How it was run: as §1

pigweed [16] = experiment: Test A postemergence; format: in vivo, Amaranthus retroflexus
How it was run: as §1

wheat [17] = experiment: Test A postemergence; format: in vivo, Triticum aestivum
How it was run: as §1

rice = experiment: Test B flooded paddy test; format: in vivo, Oryza sativa; details: Flood, 250 g ai/ha; 0 to 100 scale where 0 is no effect and 100 is complete control
How it was run: as §2

[18] = 125 g ai/ha, 0 to 100 scale where 0 is no effect and 100 is complete control
[19] = 0 to 100 scale, 0 no effect, 100 complete control, approx. 10 days
[20] = 500 g ai/ha, 0 to 100 scale, 0 no effect, 100 complete control, approx. 10 days
[21] = 500 g ai/ha, 0 to 100 scale where 0 is no effect and 100 is complete control
[22] = 500 g ai/ha, 0 to 100 scale, 0 no effect, 100 complete control
[23] = 1000 g ai/ha, 0 to 100 scale, 0 no effect, 100 complete control
[24] = 1000 g ai/ha, 0 to 100 scale, 0 no effect, 100 complete control, approx. 10 days
[25] = 0 to 100 scale where 0 is no effect and 100 is complete control
[26] = 125 g ai/ha, 0 to 100 scale, 0 no effect, 100 complete control

N#Cc1cccc(Oc2ncc(Br)cn2)c1-n1cc(Cl)cn1 [Compound 71]
Plant response rating, Crabgrass, Large (large (Lg) crabgrass [1]; [18]): 100
Crabgrass, Large plant response rating (large (Lg) crabgrass [1]; [19]): 100
Plant response rating, Sedge, Umbrella (sedge, umbrella): 70
Plant response rating, Pigweed (pigweed [2]; [18]): 100
Pigweed plant response rating (pigweed [2]; [20]): 100
Plant response rating, Corn (corn [3]; [18]): 30
Corn plant response rating (corn [3]; [19]): 40
Plant response rating, Velvetleaf (velvetleaf [4]; [18]): 90
Plant response rating, Velvetleaf (velvetleaf [4]; [21]): 100
Plant response rating, Barnyardgrass (barnyardgrass [5]; [18]): 60
Barnyardgrass plant response rating (barnyardgrass [5]; [19]): 100
Plant response rating, Crabgrass, Large (large (Lg) crabgrass [6]; [18]): 70
Plant response rating, Crabgrass, Large (large (Lg) crabgrass [6]; [22]): 100
Plant response rating, Ducksalad (Heteranthera limosa): 0
Plant response rating, Morningglory (morningglory [7]; [18]): 70
Plant response rating, Morningglory (morningglory [7]; [21]): 90
Plant response rating, Barnyardgrass (barnyardgrass [8]): 0
Plant response rating, Foxtail, Giant (giant foxtail [9]; [18]): 100
Foxtail, Giant plant response rating (giant foxtail [9]; [20]): 100
Plant response rating, Wheat (wheat [10]; [18]): 20
Wheat plant response rating (wheat [10]; [20]): 40
Plant response rating, Morningglory (morningglory [11]; [18]): 90
Morningglory plant response rating (morningglory [11]; [20]): 90
Plant response rating, Corn (corn [12]; [18]): 30
Plant response rating, Corn (corn [12]; [22]): 60
Plant response rating, Velvetleaf (velvetleaf [13]; [18]): 70
Velvetleaf plant response rating (velvetleaf [13]; [20]): 100
Plant response rating, Barnyardgrass (barnyardgrass [14]; [18]): 80
Plant response rating, Barnyardgrass (barnyardgrass [14]; [22]): 90
Plant response rating, Foxtail, Giant (giant foxtail [15]; [18]): 80
Plant response rating, Foxtail, Giant (giant foxtail [15]; [21]): 90
Plant response rating, Pigweed (pigweed [16]; [18]): 100
Plant response rating, Pigweed (pigweed [16]; [21]): 100
Plant response rating, Wheat (wheat [17]; [18]): 10
Plant response rating, Wheat (wheat [17]; [21]): 40
Plant response rating, Rice (rice): 30

FC(F)(F)COc1cccc(Oc2ncc(Cl)cn2)c1-n1cc(Br)cn1 [Compound 69]
Plant response rating, Crabgrass, Large (large (Lg) crabgrass [1]; [23]): 90
Plant response rating, Sedge, Umbrella (sedge, umbrella): 0
Pigweed plant response rating (pigweed [2]; [24]): 100
Plant response rating, Corn (corn [3]; [23]): 0
Plant response rating, Velvetleaf (velvetleaf [4]; [23]): 60
Plant response rating, Barnyardgrass (barnyardgrass [5]; [23]): 70
Plant response rating, Crabgrass, Large (large (Lg) crabgrass [6]; [23]): 80
Plant response rating, Ducksalad (Heteranthera limosa): 0
Plant response rating, Morningglory (morningglory [7]; [23]): 30
Plant response rating, Barnyardgrass (barnyardgrass [8]): 0
Foxtail, Giant plant response rating (giant foxtail [9]; [24]): 90
Wheat plant response rating (wheat [10]; [24]): 20
Morningglory plant response rating (morningglory [11]; [24]): 10
Plant response rating, Corn (corn [12]; [23]): 20
Velvetleaf plant response rating (velvetleaf [13]; [24]): 80
Plant response rating, Barnyardgrass (barnyardgrass [14]; [23]): 50
Plant response rating, Foxtail, Giant (giant foxtail [15]; [23]): 70
Plant response rating, Pigweed (pigweed [16]; [23]): 100
Plant response rating, Wheat (wheat [17]; [23]): 30
Plant response rating, Rice (rice): 0

Clc1cnc(Oc2cccc(-c3cnoc3)c2-n2cc(Br)cn2)nc1 [Compound 291]
Crabgrass, Large plant response rating (0 to 100 scale) (large (Lg) crabgrass [1]; 125 g ai/ha): 50
Crabgrass, Large plant response rating (large (Lg) crabgrass [1]; [25]): 90
Plant response rating, Sedge, Umbrella (sedge, umbrella): 0
Pigweed plant response rating (0 to 100 scale) (pigweed [2]; 125 g ai/ha): 60
Pigweed plant response rating (pigweed [2]; [21]): 90
Corn plant response rating (0 to 100 scale) (corn [3]; 125 g ai/ha): 0
Corn plant response rating (corn [3]; [25]): 0
Plant response rating, Velvetleaf (velvetleaf [4]; [26]): 50
Plant response rating, Velvetleaf (velvetleaf [4]; [21]): 60
Barnyardgrass plant response rating (0 to 100 scale, 0 is no effect, 100 is complete control) (barnyardgrass [5]; 125 g ai/ha): 0
Barnyardgrass plant response rating (barnyardgrass [5]; [25]): 50
Plant response rating, Crabgrass, Large (large (Lg) crabgrass [6]; [26]): 10
Plant response rating, Crabgrass, Large (large (Lg) crabgrass [6]; [21]): 60
Plant response rating, Ducksalad (Heteranthera limosa): 0
Plant response rating, Morningglory (morningglory [7]; [26]): 30
Plant response rating, Morningglory (morningglory [7]; [21]): 40
Plant response rating, Barnyardgrass (barnyardgrass [8]): 0
Foxtail, Giant plant response rating (0 to 100 scale) (giant foxtail [9]; 125 g ai/ha): 20
Foxtail, Giant plant response rating (giant foxtail [9]; [21]): 80
Wheat plant response rating (0 to 100 scale) (wheat [10]; 125 g ai/ha): 0
Wheat plant response rating (wheat [10]; [21]): 0
Morningglory plant response rating (0 to 100 scale) (morningglory [11]; 125 g ai/ha): 0
Morningglory plant response rating (morningglory [11]; [21]): 0
Plant response rating, Corn (corn [12]; [26]): 0
Plant response rating, Corn (corn [12]; [21]): 10
Velvetleaf plant response rating (0 to 100 scale) (velvetleaf [13]; 125 g ai/ha): 40
Velvetleaf plant response rating (velvetleaf [13]; [21]): 60
Plant response rating, Barnyardgrass (barnyardgrass [14]; [26]): 0
Plant response rating, Barnyardgrass (barnyardgrass [14]; [21]): 40
Plant response rating, Foxtail, Giant (giant foxtail [15]; [26]): 0
Plant response rating, Foxtail, Giant (giant foxtail [15]; [21]): 50
Plant response rating, Pigweed (pigweed [16]; [26]): 30
Plant response rating, Pigweed (pigweed [16]; [21]): 70
Plant response rating, Wheat (wheat [17]; [26]): 0
Plant response rating, Wheat (wheat [17]; [21]): 0
Plant response rating, Rice (rice): 0
